# US20240059740A1, “CYCLIC PEPTIDES AND USES THEREOF” (PRE[…] INC., priority 2020, published 2024)
# Residues, ends and D or L forms follow the SMILES beside them.
# Columns and labels:
# U251 cells = assay: MTT assay for cytotoxicity, U251; assay type: cell-based, human; conditions: 48 hours, % viability of control
# Source text: The MTT (3-[4.5-dimethylthiazol-2-yl]-2,5═diphenyl tetrazolium bromide) assay is based on a process undertaken by living cells, involving the conversion of MTT into formazan crystals. This assay is used routinely to measure the in vitro cytotoxic effects of drugs on cell lines or primary patient cells (Van Meerloo et al., 2011). The MTT assay measures mitochondrial activity, so in some instances where the peptide activates mitochondrial response, the results appear to increase the number of cells present i.e. >100% cell viability.
# The aim of this experiment was to identify peptide concentrations that are active on living cells and cell viability was assessed.
# The glioblastoma multiforme (GBM) cell lines used were U87 and U251 cells and patient derived cells grown as oncospheres (081024 cells). Human adherent GBM cell lines U87 and U251 were cultured in RPMI medium (Life Technologies Melbourne Australia) supplemented with 5% v/v FBS, 100 U/mL penicillin and 100 μg/mL streptomycin. 081024 cells were cultrured in NeuroCult™ NS-A Proliferation medium with 0.2% (v/v) heparin, 20 ng/mL EGF and 10 ng/mL FGF.
# 8×10^3 U87 and 7×10^3 U251 cells per well were seeded in 96 well plates in 200 μL serum-containing RPMI medium and incubated at 37° C. with 5% CO2 for 24 hours. After one wash with serum-free medium, 100 μL serum-free medium with different concentration of peptide SEQ ID NO:1 was added to each well. After 48 hours incubation, 10 μL of 0.5 mg/mL MTT was added and incubated for 2 hours at 37° C. Formazan crystals were dissolved by 200 μL/well dimethyl sulfoxide (DMSO) and shaking for 15 minutes. The UV absorbance was read with an iMark™ microplate absorbance reader at 595 nm (Bio-Rad Laboratories). Background absorbance was subtracted and results expressed as the % viability of control (untreated cells).
# Snail-1 mRNA = assay: Real time RT-PCR, Snail-1 mRNA expression; assay type: cell-based, human
# Source text: The real-time reverse transcription polymerase chain reaction (RT-PCR) uses fluorescent reporter molecules to monitor the production of amplification products during each cycle of the PCR reaction. This combines the nucleic acid amplification and detection steps into one homogeneous assay and use of appropriate chemistries and data analysis eliminates the need for Southern blotting or DNA sequencing for amplicon identification. Its simplicity, specificity and sensitivity, together with its potential for high throughput and the ongoing introduction of new chemistries, more reliable instrumentation and improved protocols, has made real-time RT-PCR the benchmark technology for the detection and/or comparison of RNA levels.’
# In order to detect and quantify the expression of specific genes at mRNA level, real-time reverse transcriptase polymerase chain reaction (Real time RT-PCR) was performed. Total RNA of samples was isolated and purified using the PureLink® RNA Mini Kit (Life technologies). The concentration of total RNA was detected by NanoDrop 2000 Spectrophotometer (Thermo Scientific). The total RNA (2000 ng) was reverse transcribed using the High-Capacity cDNA Reverse Transcription Kit (Applied Biosystems™).
# The primers of target genes were TaqMan™ Gene Expression Assay for human PLAU (Hs01547054_m1), MMP-2 (Hs01548727_m1), MMP-9 (Hs00957562_m1), Snail-1 (Hs00195591_m1), Snail-2 (Hs00161904_m1), N-cadherin (Hs00983056_m1) and Twist (Hs01675818_s1). Relative quantification was done by reference to 18S ribosomal RNA (18S rRNA) and analysed using the comparative critical threshold (Ct) method
# The mRNA expression of MMPs was measured using qRT-PCR. This was tested three independent times; the results are shown in Tables 9, 10 and 11 for U251, U87 cells and O81024 cells respectively. Results are reported as percent of the control cells (no treatment). Both MMP-2 and uPA were decreased in U251 by SEQ ID NO.1.
# Epithelial-mesenchymal transition (EMT) is the process by which epithelial cells acquire a migratory (metastatic) phenotype and so EMT is associated with cancer metastasis, cancer cell stemness, chemoresistance and immune resistance. Therefore, the determination of the mRNA expression of EMT markers is a valuable tool to evaluate invasion potential of cancer cells.
# The ‘Snail’ superfamily is involved in cell differentiation and survival, two processes central in cancer research. Snail-1 has a pivotal role in the regulation of epithelial-mesenchymal transition (EMT) and Snail-1 expression is associated with poor prognosis in metastatic cancer, and tumours with elevated Snail-1 expression are harder to treat. The significance of Snail-1 as a prognostic indicator, its involvement in the regulation of EMT and metastasis, and its roles in both drug and immune resistance point out that Snail-1 is an attractive target for tumour growth inhibition and a target for sensitization to cytotoxic drugs (Kaufhold et al., 2014). Twist is transcriptionally active during cell differentiation and lineage determination. During the establishment of cancer metastases by EMT, Twist acts independently of Snail to suppress E-cadherin and to upregulate N-cadherin (CDH-2) and fibronectin. Snail-2 (Slug) is another member of the SNAIL family of transcriptional activators and serves an important role in suppressing the epithelial phenotype in numerous cancer cells (Iwadate, 2016).
compound,measurement,setting,value
"CC(C)C[C@@H]1NC(=O)[C@H](C)NC(=O)[C@@H](NC(=O)[C@@H]2CCCN2C(=O)[C@@H](N)CC(C)C)CSSC(C)(C)CNC(=O)CC[C@@H](C(=O)N[C@@H](CCCNC(=N)N)C(N)=O)NC(=O)[C@H](CC(=O)O)NC(=O)[C@H](CC(N)=O)NC1=O [SEQ ID NO: 1, Leu-Pro-c(SSA*-Ala-Leu-Asn-Asp-Glu)-Arg-NH2] (HELM PEPTIDE1{L.P.C.A.L.N.D.E.R.[am]}|CHEM1{[CC(C)(CN[*:2])S[*:1]]}$PEPTIDE1,CHEM1,3:R3-1:R1|PEPTIDE1,CHEM1,8:R3-1:R2$$$V2.0; N-terminus assumed)",Cell viability,U251 cells; 1 μM,100.7%
same,Cell viability,U251 cells; 5 μM,101.7%
same,Cell viability,U251 cells; 10 μM,100.4%
same,Cell viability,U251 cells; 50 μM,107.3%
same,Cell viability,U251 cells; 100 μM,105.5%
same,Cell viability,U251 cells; 500 μM,93.84%
same,Cell viability,U251 cells; 1 mM,83.99%
same,"mRNA expression, Snail-1","Snail-1 mRNA; 081024 cells, baseline expression level = 1, listed as SEQ ID NO. 1",0.60
same,"mRNA expression, Snail-1","Snail-1 mRNA; 081024 cells, baseline expression level = 1, listed as SEQ ID NO.1",halved
same,"mRNA expression, Snail-1","Snail-1 mRNA; U87 cells, baseline expression level = 1",0.84
same,"mRNA expression, Snail-1","Snail-1 mRNA; U251 cells, relative to control (no treatment), listed as SEQ ID NO. 1",0.42
same,"mRNA expression, Snail-1","Snail-1 mRNA; U251 cells, relative to control (no treatment), listed as SEQ ID NO.1",decreased
